Measured values taken from ChEMBL document CHEMBL2157997, “β-D-2'-α-F-2'-β-C-Methyl-6-O-substituted 3',5'-cyclic phosphate nucleotide prodrugs as inhibitors of hepatitis C virus replication: a structure-activity relationship study” (Bioorg Med Chem Lett, 2012).

Experiments:
[1] = Half life in simulated intestinal fluid; format: physicochemical
[2] = Half life in human plasma; format: ADME, cell-free
[3] = Half life in rat plasma; format: ADME, cell-free
[4] = test system: Hepatitis C virus; test: Antiviral activity against Hepatitis C virus genotype 1b replicon infected in clone A cells assessed as inhibition of viral replication by RT-PCR analysis; format: functional, Hepacivirus hominis
[5] = Half life in simulated gastric fluid; format: physicochemical
[6] = Cytotoxicity against human HuH7 cells; format: cell-based; conditions: Huh-7 cells
[7] = Half life in human liver S9 fraction; format: ADME, subcellular
[8] = test system: Hepatitis C virus; test: Antiviral activity against Hepatitis C virus genotype 1b replicon infected in Lunet cells by luciferase reporter gene assay; format: functional, Hepacivirus hominis
[9] = test system: Hepatitis C virus; test: Ratio of PSI-352938 EC90 to compound EC90 for Hepatitis C virus genotype 1b infected in clone A cells; format: functional, Hepacivirus hominis
[10] = Cmax in rat at 40 mg/kg, po administered QD measured after 1 day; format: ADME, organism-based; parameters: dose 40 mg/kg, route oral; conditions: in vivo
[11] = test system: Hepatitis C virus; test: Antiviral activity against Hepatitis C virus expressing NS5B S282T mutant by cell-based replicon assay; format: functional, Hepacivirus hominis
[12] = test system: Rattus norvegicus; test: Prodrug activation in rat liver assessed as beta-D-2'-deoxy-2'-alpha-fluoro-2'-beta-C-methylguanosine diphosphate level at 40 mg/kg, po administered QD as repeated dose measured at 4 hrs post-dosing on day 8; format: organism-based; parameters: dose 40 mg/kg, route oral; conditions: in vivo
[13] = Half life in rat at 40 mg/kg, po administered QD measured after 7 days; format: ADME, organism-based; parameters: dose 40 mg/kg, route oral; conditions: in vivo
[14] = test system: HepG2; test: Mitochondrial toxicity against human HepG2 cells assessed as decrease in mitochondrial COX2 DNA up to 100 uM after 14 days by RT-PCR analysis; format: cell-based; conditions: hepg2, 336 h
[15] = Cmax in rat at 40 mg/kg, po administered QD measured after 7 days; format: ADME, organism-based; parameters: dose 40 mg/kg, route oral; conditions: in vivo
[16] = test system: Rattus norvegicus; test: Prodrug activation in rat liver assessed as beta-D-2'-deoxy-2'-alpha-fluoro-2'-beta-C-methylguanosine monophosphate level at 40 mg/kg, po administered QD as repeated dose measured at 4 hrs post-dosing on day 8; format: organism-based; parameters: dose 40 mg/kg, route oral; conditions: in vivo
[17] = test system: Rattus norvegicus; test: Tlast in rat at 40 mg/kg, po administered QD measured after 1 day; format: ADME, organism-based; parameters: dose 40 mg/kg, route oral; conditions: in vivo, 24 h
[18] = AUC (infinity) in rat at 40 mg/kg, po administered QD measured after 1 day; format: ADME, organism-based; parameters: time infinity, dose 40 mg/kg, route oral; conditions: plasma
[19] = AUC (infinity) in rat at 40 mg/kg, po administered QD measured after 7 days; format: ADME, organism-based; parameters: time infinity, dose 40 mg/kg, route oral; conditions: plasma
[20] = test system: Rattus norvegicus; test: Prodrug activation in rat liver assessed as total nucleotide level at 40 mg/kg, po administered QD as repeated dose measured at 4 hrs post-dosing on day 8; format: organism-based; parameters: dose 40 mg/kg, route oral; conditions: in vivo
[21] = test system: Hepatocyte; test: Prodrug activation in human primary hepatocytes assessed as assessed as Tmax of beta-D-2'-deoxy-2'-alpha-fluoro-2'-beta-C-methylguanosine triphosphate level at 100 uM; format: cell-based, Liver
[22] = Tmax in rat at 40 mg/kg, po administered QD measured after 7 days; format: ADME, organism-based; parameters: dose 40 mg/kg, route oral; conditions: in vivo
[23] = test system: BXPC-3; test: Cytotoxicity against human BxPC3 cells up to 100 uM after 8 days by MTT assay; format: cell-based; conditions: bxpc-3, 192 h
[24] = Half life in rat at 40 mg/kg, po administered QD measured after 1 day; format: ADME, organism-based; parameters: dose 40 mg/kg, route oral; conditions: in vivo
[25] = test system: CCRF-CEM; test: Mitochondrial toxicity against human CEM cells assessed as decrease in ribosomal DNA up to 100 uM after 14 days by RT-PCR analysis; format: cell-based; conditions: 336 h
[26] = test system: Huh-7; test: Prodrug activation in human HuH7 cells infected with HCV genotype 1b assessed as Tmax of beta-D-2'-deoxy-2'-alpha-fluoro-2'-beta-C-methylguanosine triphosphate level at 100 uM; format: cell-based; conditions: huh-7, 100 µM
[27] = AUClast in rat at 40 mg/kg, po administered QD measured after 7 days; format: ADME, organism-based; parameters: dose 40 mg/kg, route oral; conditions: plasma
[28] = AUClast in rat at 40 mg/kg, po administered QD measured after 1 day; format: ADME, organism-based; parameters: dose 40 mg/kg, route oral; conditions: plasma
[29] = test system: Rattus norvegicus; test: Prodrug activation in rat liver assessed as free nucleoside level at 40 mg/kg, po administered QD as repeated dose measured at 4 hrs post-dosing on day 8; format: organism-based; parameters: dose 40 mg/kg, route oral; conditions: in vivo
[30] = test system: Rattus norvegicus; test: Tlast in rat at 40 mg/kg, po administered QD measured after 7 days; format: ADME, organism-based; parameters: dose 40 mg/kg, route oral; conditions: in vivo, 168 h
[31] = test system: Huh-7; test: Cytotoxicity against human HuH7 cells up to 100 uM after 8 days by MTT assay; format: cell-based; conditions: huh-7, 192 h
[32] = test system: CCRF-CEM; test: Cytotoxicity against human CEM cells up to 100 uM after 8 days by MTT assay; format: cell-based; conditions: 192 h
[33] = test system: CCRF-CEM; test: Mitochondrial toxicity against human CEM cells assessed as decrease in mitochondrial COX2 DNA up to 100 uM after 14 days by RT-PCR analysis; format: cell-based; conditions: 336 h
[34] = Tmax in rat at 40 mg/kg, po administered QD measured after 1 day; format: ADME, organism-based; parameters: dose 40 mg/kg, route oral; conditions: in vivo
[35] = test system: Rattus norvegicus; test: Prodrug conversion in rat liver assessed as beta-D-2'-deoxy-2'-alpha-fluoro-2'-beta-C-methylguanosine triphosphate level at 40 mg/kg, po administered QD as repeated dose measured at 4 hrs post-dosing on day 8; format: ADME, organism-based; parameters: dose 40 mg/kg, route oral; conditions: in vivo
[36] = test system: HepG2; test: Cytotoxicity against human HepG2 cells up to 100 uM after 8 days by MTT assay; format: cell-based; conditions: hepg2, 192 h
[37] = test system: HepG2; test: Mitochondrial toxicity against human HepG2 cells assessed as decrease in ribosomal DNA up to 100 uM after 14 days by RT-PCR analysis; format: cell-based; conditions: hepg2, 336 h
[38] = test system: Hepatitis C virus; test: Antiviral activity against Hepatitis C virus infected in po dosed human assessed as log reduction in viral load; format: functional, Hepacivirus hominis

Compound: CC(C)Oc1nc(N)nc2c1ncn2[C@@H]1O[C@@H]2COP(=O)(OC(C)C)O[C@H]2[C@@]1(C)F (stereo partly specified)
- half-life [1]: > 20 h
- half-life [2]: > 24 h
- half-life [3]: > 24 h
- EC90 [4]: 677 nM
- half-life [5]: > 20 h
- CC90 [6]: > 100000 nM
- half-life [7]: 16.3 h
- EC90 [8]: 740 nM

Compound: CCOP1(=O)OC[C@H]2O[C@@H](n3cnc4c(OC(C)C)nc(N)nc43)[C@](C)(F)[C@@H]2O1 (stereo partly specified)
- EC90 [8]: 2250 nM

Compound: CC(C)Oc1nc(N)nc2c1ncn2[C@@H]1O[C@@H]2COP(=O)(OCc3ccccc3)O[C@H]2[C@@]1(C)F (stereo partly specified)
- CC90 [6]: > 100000 nM
- EC90 [8]: 40 nM

Compound: CC(C)Oc1nc(N)nc2c1ncn2[C@@H]1O[C@@H]2COP(=O)(O)O[C@H]2[C@@]1(C)F
- EC90 [8]: > 10000 nM

Compound: CCCOP1(=O)OC[C@H]2O[C@@H](n3cnc4c(OCC)nc(N)nc43)[C@](C)(F)[C@@H]2O1 (stereo partly specified)
- EC90 [4]: 13300 nM
- CC90 [6]: > 100000 nM

Compound: COc1nc(N)nc2c1ncn2[C@@H]1O[C@@H]2COP(=O)(OC3CCCC3)O[C@H]2[C@@]1(C)F (stereo partly specified)
- Ratio [9]: >=10
- Cmax [10]: 160 ng/mL
- EC90 [11]: 27 nM
- half-life [1]: 14 h
- Drug metabolism [12]: 31 nmol/g
- half-life [13]: 0.93 h
- half-life [2]: > 24 h
- Activity [14]: Non-toxic
- Cmax [15]: 120 ng/mL
- Drug metabolism [16]: 26.6 nmol/g
- Tlast [17]: 7.33 h
- AUC(0-inf) [18]: 690 ng·h/mL
- AUC(0-inf) [19]: 510 ng·h/mL
- Drug metabolism [20]: 61.37 nmol/g
- Tmax [21]: 8 h
- Tmax [22]: 1.67 h
- half-life [3]: 22 h
- Activity [23]: Non-toxic
- half-life [24]: 1.8 h
- EC90 [4]: 102 nM
- half-life [5]: 9.2 h
- CC90 [6]: > 100000 nM
- Activity [25]: Non-toxic
- Tmax [26]: 72 h
- AUC(0-t) at 168 h [27]: 510 ng·h/mL
- AUC(0-t) at 24 h [28]: 660 ng·h/mL
- Drug metabolism [29]: 21.28 nmol/g
- Tlast [30]: 7.33 h
- Activity [31]: Non-toxic
- half-life [7]: 20 h
- Activity [32]: Non-toxic
- Activity [33]: Non-toxic
- EC90 [8]: 37 nM
- Tmax [34]: 1.67 h
- Drug metabolism [35]: 3.78 nmol/g
- Activity [36]: Non-toxic
- Activity [37]: Non-toxic

Compound: COc1nc(N)nc2c1ncn2[C@@H]1O[C@@H]2COP(=O)(OC3CCC3)O[C@H]2[C@@]1(C)F (stereo partly specified)
- Ratio [9]: >=10
- Cmax [10]: 2080 ng/mL
- EC90 [11]: 67 nM
- half-life [1]: < 6 h
- Drug metabolism [12]: 32.36 nmol/g
- half-life [13]: 1.43 h
- half-life [2]: 18.3 h
- Activity [14]: Non-toxic
- Cmax [15]: 5170 ng/mL
- Drug metabolism [16]: 29.9 nmol/g
- Tlast [17]: 20 h
- AUC(0-inf) [18]: 9500 ng·h/mL
- AUC(0-inf) [19]: 13900 ng·h/mL
- Drug metabolism [20]: 65.93 nmol/g
- Tmax [21]: > 48 h
- Tmax [22]: 4 h
- half-life [3]: 15.8 h
- Activity [23]: Non-toxic
- half-life [24]: 1.32 h
- EC90 [4]: 135 nM
- half-life [5]: < 4 h
- CC90 [6]: > 100000 nM
- Activity [25]: Non-toxic
- Tmax [26]: 48 h
- AUC(0-t) at 168 h [27]: 13900 ng·h/mL
- AUC(0-t) at 24 h [28]: 9480 ng·h/mL
- Drug metabolism [29]: 15.5 nmol/g
- Tlast [30]: 20 h
- Activity [31]: Non-toxic
- half-life [7]: 2.6 h
- Activity [32]: Non-toxic
- Activity [33]: Non-toxic
- EC90 [8]: 46 nM
- Tmax [34]: 1.67 h
- Drug metabolism [35]: 3.69 nmol/g
- Activity [36]: Non-toxic
- Activity [37]: Non-toxic

Compound: COc1nc(N)nc2c1ncn2[C@@H]1O[C@@H]2COP(=O)(OC3CCCCC3)O[C@H]2[C@@]1(C)F (stereo partly specified)
- CC90 [6]: > 10000 nM
- EC90 [8]: 39 nM

Compound: CCOc1nc(N)nc2c1ncn2[C@@H]1O[C@@H]2COP(=O)(OC(C)C)O[C@H]2[C@@]1(C)F (stereo partly specified) [PSI-352938]
- half-life [1]: > 20 h
- half-life [2]: > 24 h
- Tmax [21]: 24 h
- half-life [3]: > 24 h
- EC90 [4]: 1370 nM
- half-life [5]: > 20 h
- CC90 [6]: > 100000 nM
- Tmax [26]: 96 h
- half-life [7]: > 24 h
- Activity [38]: >5 log10IU/ml
- EC90 [8]: 740 nM
